This note sets out measurements from patent US20220332839A1, “USE OF PRG4 TO TREAT CANCER” (Lubris LLC, priority 2019, published 2022).

The subject of one experiment is lubricin (PRG4) mRNA. Put plainly: PRG4 mRNA expression in CAFs and ex vivo HCC specimens. The format is cell-based, human. As to conditions: 48 hours; CAFs (p<0.01) and HCC samples (p<0.05). How it is done: RNA extraction and cDNA synthesis: […] of frozen ex-vivo treated HCC tissues were ground with a mortar-pestle in the presence of liquid nitrogen until a thin powder was obtained. The ground tissues were lysed with 0.5-1 ml of RLT buffer+1% (BME) and then processed according to the manufacturer's recommendations (RNeasy kit, Qiagen). […] The obtained RNA was assayed for quality and concentration using the NanoDrop 2000/2000c (Thermo Fisher Scientific). cDNA was synthetized using the High Capacity cDNA reverse transcription kit (Thermo Fisher Scientific), according to relative datasheet.
Real time PCR: One ng/μl of cDNA was used in total 20 μl reaction mix in the presence of 500 nM of each forward and reverse primer referred to a specific gene of interest, and 2×SYBR green master mix (Bio-Rad). The reaction was conducted in a CFX96 Touch Real-Time Detection System (Bio-Rad).
CAFs isolation: Immediately after surgical resection, HCC tumoral and peritumoral specimens were minced into 0.5-1 cm pieces and left in MACS Tissue Storage Solution (Miltenyi Biotec). The tissues were then further cut into smaller size pieces (1-2 mm), washed three times in Hanks balanced salt solution (HBSS), and then incubated in HBSS in the presence of type IV collagenase (Thermo Fisher Scientific) and 3 mM CaCl2 at 37° C. under gentle rotation for 4 hours. At the end of this step, the dissociation was mechanically facilitated by pipetting up-down the digested tissues with a large size orifice 50 ml pipette. The floating cells were collected and washed three times with HBSS and seeded in normal culture conditions in IMDM+20% FBS. The decanted, partially digested tissue specimens were subjected to a second round of digestion (as previously described). The resulting dissociated cells were washed with HBSS and cultured in IMDM+20% FBS. […] The presence of minimal contaminating non-fibroblastic cells (mostly cancerous hepatocytes, cholangiocytes and macrophages) was evaluated using antibodies to EpCAM, CD45, and CD11b.

The test system of experiment [1] is HCC cells (HLE, HLF, PLC/DC/19, Hep3B, PLC/PRF/5). Put plainly: 72-hour proliferation assay, all HCC cells. The format is cell-based, human. How it is done:
(§1) Proliferation assay: In 100 μl complete medium, 3,000 cells were seeded in wells of a 96-well plate and left overnight to allow complete attachment. The next day (at time t=0 hours), the medium was removed and replaced with 100 μl of fresh medium in the presence/absence of Sorafenib (2.5 μM), Regorafenib (2.5 μM), rhPRG4 (12.5 to 100 μg/ml). Dimethyl sulfoxide (DMSO) and PBS+0.01% Tween-20 were used as vehicles of Sorafenib/Regorafenib, and rhPRG4, respectively. Cells in triplicate wells for each cell line were fixed at t=0 hours with 4% paraformaldehyde (PFA, pH 7.6, 10 min incubation), then stained with crystal violet (CV) and thoroughly washed to remove the excess staining. After 72 hours, the cells were fixed by adding 100 μl of 4% PFA directly to the medium (2% final PFA concentration, 20 min incubation), and processed for CV staining as previously described. Then, 100 or 200 μl of 1% sodium dodecyl-sulphate were added to the wells and the plates were left under shaking until complete CV release from stained cells. Optical density was at 595 nm wavelength measured using a plate reader.

A further experiment has as its target T1, immobilized CD44-IgG1Fc (Homo sapiens, UniProt P16070).
T1 construct: purchased R & D systems
Put plainly: Surface plasmon resonance binding of rhPRG4 to CD44 and competition with HMW HA. How it is done:
Binding of rhPRG4 to CD44-IgG1Fc was investigated using surface plasmon resonance (Biacore T100, GE Healthcare Lifesciences, NJ, USA). Series S chips were functionalized using the human antibody capture kit (GE Life Sciences) and either CD44-IgG1Fc or IgG1FC was allowed to bind to the surface of the functionalized chips in flow cell 1 (Fc1) and flow cell 2 (Fc2), respectively. rhPRG4 was injected at 30 μL/min for 8 min at concentrations of 300, 250, 200, 150, 100 and 50 μg/mL followed by a 10 min dissociation using 0.1M HEPES, 1.5M NaCl, 30 mM EDTA, and 0.5% P20 (GE Life Sciences). The surface of the chip was regenerated at the end of each cycle with 1 min pulse of 3M MgCl2. Each analyte concentration was injected in duplicate. The resulting curves were double referenced (i.e. Fc2-Fc1, followed by subtraction of the 0 μg/mL curve). The binding kinetics and binding affinity were determined by BiaEvaluation software, using 1:1 binding/conformational change model or by steady-state equilibrium, respectively. To study the competition between rhPRG4 and HMW HA in binding to CD44, rhPRG4 was injected at concentrations ranging between 0 and 300 μg/mL as described above. Following the end of dissociation phase, HMW HA was injected at 50 μg/mL (30 μL per min) for 1 min. […]
(SPR reads the build-up and loss of mass on a sensor chip optically.)

Experiment [2] has as its system HLE, HLF and PLC/DC/19 cells. Put plainly: 72-hour proliferation assay, CD44 positive HCC cells. As to conditions: drug 2.5 μM, rhPRG4 12.5 to 100 μg/ml. The format is cell-based, human. How it is done: as §1
Characterization of the primary HCC cells line PLC/DC/19: The primary HCC cell line, PLC/DC/19, was isolated from freshly collected surgically resected HCC specimen following the same isolation procedure to isolate CAFs. […]

Consider “TGFβ: recombinant human mature transforming growth factor beta (R&D systems) [reference compound]”, for which, in the experiment with lubricin (PRG4) mRNA, the “expression of lubricin mRNA” value is “significantly enhanced the expression of lubricin”.

As for “rhPRG4: full-length recombinant human PRG4 (lubricin) glycoprotein produced by CHO-M cells; residues 25-1404 of SEQ ID NO:1”, the “cell proliferation, rhPRG4 alone” value in experiment [1] is reported as “did not markedly impair the cell proliferation”. Besides, the Kd with immobilized CD44-IgG1Fc (based on a rhPRG4 molecular weight of 240 KDa, read-out: apparent Kd) was approximately 38 nM. In the experiment with immobilized CD44-IgG1Fc (rhPRG4 0-300 μg/mL, then HMW HA 50 μg/mL), the “effect on binding of HMW HA to recombinant CD44” value was “interfered with binding of HMW HA”. In experiment [2], the “effectiveness of Sorafenib or Regorafenib when coupled with rhPRG4” value is “strongly and synergistically improved their effectiveness”.
